Test results published in the CheMixHub ionic liquid set.
± gives the uncertainty stated by the source.

Experiment: xn = mol fraction of the nth substance listed
Conditions: 100 kPa

C[C@H](N)C(=O)[O-].C[N+](C)(C)CCO + CCCO
Conditions | viscosity [mPa·s]
287.96 K, x1 = 0.0997 | 7.8 ± 1.9
287.99 K, x1 = 0.2007 | 22.8 ± 5.5
288.02 K, x1 = 0.3915 | 119 ± 29
288.03 K, x1 = 0.6939 | 910 ± 220
288.04 K, x1 = 0.6047 | 540 ± 130
288.05 K, x1 = 0.7915 | 1505 ± 380
288.06 K, x1 = 0.506 | 267 ± 66
288.07 K, x1 = 0.9049 | 2669 ± 680
288.08 K, x1 = 0.2998 | 53 ± 13
288.1 K, x1 = 1 | 5100 ± 1300
289.23 K, x1 = 0.0997 | 7.7 ± 1.8
289.24 K, x1 = 0.2007 | 22.2 ± 5.3
289.26 K, x1 = 0.3915 | 114 ± 27
289.28 K, x1 = 0.6939 | 850 ± 210
289.29 K, x1 = 0.6047 | 510 ± 120
289.3 K, x1 = 0.7915 | 1387 ± 340
289.31 K, x1 = 0.506 | 251 ± 61
289.31 K, x1 = 0.9049 | 2464 ± 620
289.32 K, x1 = 0.2998 | 51 ± 12
289.96 K, x1 = 1 | 3700 ± 1000
290.21 K, x1 = 1 | 4300 ± 1200
290.49 K, x1 = 0.0997 | 7.5 ± 1.8
290.5 K, x1 = 0.2007 | 21.3 ± 5.1
290.51 K, x1 = 0.3915 | 107 ± 26
290.52 K, x1 = 0.6047 | 470 ± 110
290.52 K, x1 = 0.6939 | 770 ± 190
290.53 K, x1 = 0.506 | 231 ± 56
290.53 K, x1 = 0.7915 | 1251 ± 310
290.53 K, x1 = 0.9049 | 2210 ± 560
290.54 K, x1 = 0.2998 | 49 ± 12
291.71 K, x1 = 0.0997 | 7.2 ± 1.7
291.72 K, x1 = 0.2007 | 20.4 ± 4.9
291.72 K, x1 = 0.3915 | 99 ± 24
291.73 K, x1 = 0.2998 | 46 ± 11
291.73 K, x1 = 0.506 | 214 ± 52
291.73 K, x1 = 0.6047 | 430 ± 100
291.73 K, x1 = 0.6939 | 700 ± 170
291.73 K, x1 = 0.7915 | 1121 ± 280
291.73 K, x1 = 0.9049 | 1968 ± 490
292.02 K, x1 = 1 | 3052 ± 830
292.32 K, x1 = 1 | 3520 ± 940
292.9 K, x1 = 0.0997 | 6.9 ± 1.7
292.91 K, x1 = 0.2007 | 19.6 ± 4.7
292.91 K, x1 = 0.2998 | 43 ± 10
292.91 K, x1 = 0.3915 | 93 ± 22
292.91 K, x1 = 0.6047 | 391 ± 95
292.92 K, x1 = 0.506 | 199 ± 48
292.92 K, x1 = 0.6939 | 640 ± 160
292.92 K, x1 = 0.7915 | 1017 ± 250
292.92 K, x1 = 0.9049 | 1771 ± 440
294.08 K, x1 = 1 | 2544 ± 670
294.09 K, x1 = 0.0997 | 6.7 ± 1.6
294.09 K, x1 = 0.2007 | 18.8 ± 4.5
294.09 K, x1 = 0.2998 | 41 ± 9.8
294.09 K, x1 = 0.3915 | 86 ± 21
294.09 K, x1 = 0.506 | 185 ± 45
294.09 K, x1 = 0.6047 | 358 ± 87
294.09 K, x1 = 0.9049 | 1589 ± 400
294.1 K, x1 = 0.6939 | 580 ± 140
294.1 K, x1 = 0.7915 | 920 ± 230
294.41 K, x1 = 1 | 2896 ± 760
295.27 K, x1 = 0.0997 | 6.5 ± 1.6
295.27 K, x1 = 0.2007 | 18 ± 4.3
295.27 K, x1 = 0.2998 | 38.9 ± 9.4
295.27 K, x1 = 0.3915 | 81 ± 20
295.27 K, x1 = 0.506 | 172 ± 42
295.27 K, x1 = 0.6047 | 329 ± 80
295.27 K, x1 = 0.6939 | 530 ± 130
295.27 K, x1 = 0.7915 | 840 ± 210
295.27 K, x1 = 0.9049 | 1438 ± 360
296.14 K, x1 = 1 | 2140 ± 560
296.45 K, x1 = 0.0997 | 6.3 ± 1.5
296.45 K, x1 = 0.2007 | 17.3 ± 4.2
296.45 K, x1 = 0.2998 | 36.9 ± 8.9
296.45 K, x1 = 0.3915 | 76 ± 18
296.45 K, x1 = 0.506 | 160 ± 39
296.45 K, x1 = 0.6047 | 302 ± 73
296.45 K, x1 = 0.6939 | 490 ± 120
296.45 K, x1 = 0.7915 | 760 ± 190
296.45 K, x1 = 0.9049 | 1298 ± 320
296.48 K, x1 = 1 | 2402 ± 620
297.63 K, x1 = 0.0997 | 6.1 ± 1.5
297.63 K, x1 = 0.2007 | 16.6 ± 4
297.63 K, x1 = 0.2998 | 35 ± 8.4
297.63 K, x1 = 0.3915 | 71 ± 17
297.63 K, x1 = 0.506 | 149 ± 36
297.63 K, x1 = 0.6047 | 278 ± 67
297.63 K, x1 = 0.6939 | 450 ± 110
297.63 K, x1 = 0.7915 | 700 ± 170
297.63 K, x1 = 0.9049 | 1174 ± 290
298.2 K, x1 = 1 | 1806 ± 460
298.54 K, x1 = 1 | 2000 ± 510
298.8 K, x1 = 0.0997 | 6 ± 1.4
298.8 K, x1 = 0.2007 | 16 ± 3.8
298.8 K, x1 = 0.2998 | 33.4 ± 8
298.8 K, x1 = 0.3915 | 67 ± 16
298.8 K, x1 = 0.6047 | 257 ± 62
298.81 K, x1 = 0.506 | 140 ± 34
298.81 K, x1 = 0.6939 | 410 ± 100
298.81 K, x1 = 0.7915 | 640 ± 160
